Experimental findings from ChEMBL document CHEMBL1629589, “Activity of the oral neuraminidase inhibitor A-322278 against the oseltamivir-resistant H274Y (A/H1N1) influenza virus mutant in mice” (2009) are described below.

What all share (assay type): functional
The subject of test [1] is Influenza A virus. Kind of test: Antiviral activity against recombinant Influenza A virus (A/WSN/1933(H1N1)) H274Y mutant infected in BALB/c mouse assessed as reduction in body weight at 1 mg/kg, po administered 4 hrs before infection for 5 days measured on day 5 (reference value: 22.2 %). Details: scale not given: the % may be the effect or the level left.
Test [2] deals with Influenza A virus. Kind of test: Antiviral activity against recombinant Influenza A virus (A/WSN/1933(H1N1)) H274Y mutant infected in BALB/c mouse assessed as reduction in body weight at 1 mg/kg, po administered 48 hrs postinfection for 5 days measured on day 5 (reference value: 22.2 %). On the set-up: scale not given: the % may be the effect or the level left.
Test [3] has as its system Influenza A virus. As to the kind of experiment: Antiviral activity against recombinant Influenza A virus (A/WSN/1933(H1N1)) H274Y mutant infected in BALB/c mouse assessed as reduction in body weight at 10 mg/kg, po administered 48 hrs postinfection for 5 days measured on day 5 (reference value: 22.2 %). On the set-up: scale not given: the % may be the effect or the level left.

Test [4] concerns Influenza A virus. Kind of test: Antiviral activity against recombinant Influenza A virus (A/WSN/1933(H1N1)) H274Y mutant infected in BALB/c mouse assessed as mortality rate at 1 mg/kg, po administered 4 hrs before infection for 5 days measured on day 5 (reference value: 100 %).
Test [5] has as its system Influenza A virus. As to the kind of experiment: Antiviral activity against recombinant Influenza A virus (A/WSN/1933(H1N1)) H274Y mutant infected in BALB/c mouse assessed as mortality rate at 1 mg/kg, po administered 48 hrs postinfection for 5 days measured on day 5 (reference value: 100 %).
The subject of test [6] is Influenza A virus. As to the kind of experiment: Antiviral activity against recombinant Influenza A virus (A/WSN/1933(H1N1)) H274Y mutant infected in BALB/c mouse assessed as mortality rate at 10 mg/kg, po administered 48 hrs postinfection for 5 days measured on day 5 (reference value: 100 %).
The test system of test [7] is Influenza A virus. As to the kind of experiment: Antiviral activity against recombinant Influenza A virus (A/WSN/1933(H1N1)) H274Y mutant infected in BALB/c mouse assessed as time to death at 1 mg/kg, po administered 48 hrs postinfection for 5 days (reference value: 5.1 days).
For test [8], the system named is Influenza A virus. Kind of test: Antiviral activity against recombinant Influenza A virus (A/WSN/1933(H1N1)) H274Y mutant infected in BALB/c mouse assessed as time to death at 10 mg/kg, po administered 48 hrs postinfection for 5 days (reference value: 5.1 days).
In test [9] the test system is Influenza A virus. As to the kind of experiment: Antiviral activity against recombinant Influenza A virus (A/WSN/1933(H1N1)) H274Y mutant infected in BALB/c mouse assessed as time to death at 1 mg/kg, po administered 4 hrs before infection on day 5 (reference value: 5.1 days).
The subject of test [10] is Influenza A virus. Kind of test: Antiviral activity against recombinant Influenza A virus (A/WSN/1933(H1N1)) H274Y mutant infected in BALB/c mouse assessed as lung viral titer at 1 mg/kg, po administered 4 hrs before infection for 5 days measured on day 4 (reference value: 1 x 10^6 +/- 0.3 x 10^6 PFU).
The subject of test [11] is Influenza A virus. Kind of test: Antiviral activity against recombinant Influenza A virus (A/WSN/1933(H1N1)) H274Y mutant infected in BALB/c mouse assessed as lung viral titer at 1 mg/kg, po administered 48 hrs postinfection for 5 days measured on day 4 (reference value: 1 x 10^6 +/- 0.3 x 10^6 PFU).
The test system of test [12] is Influenza A virus. As to the kind of experiment: Antiviral activity against recombinant Influenza A virus (A/WSN/1933(H1N1)) H274Y mutant infected in BALB/c mouse assessed as lung viral titer at 10 mg/kg, po administered 48 hrs postinfection for 5 days measured on day 4 (reference value: 1 x 10^6 +/- 0.3 x 10^6 PFU).
Test [13] has as its system Influenza A virus. Kind of test: Antiviral activity against recombinant Influenza A virus (A/WSN/1933(H1N1)) H274Y mutant infected in BALB/c mouse assessed as lung viral titer at 10 mg/kg, po administered 4 hrs before infection for 5 days measured on day 4 (reference value: 1 x 10^6 +/- 0.3 x 10^6 PFU).
Test [14] has as its system Influenza A virus. Kind of test: Antiviral activity against recombinant Influenza A virus (A/WSN/1933(H1N1)) H274Y mutant infected in BALB/c mouse assessed as mortality rate at 10 mg/kg, po administered 4 hrs before infection for 5 days measured on day 5 (reference value: 100 %).
Test [15] deals with Influenza A virus. Kind of test: Antiviral activity against recombinant Influenza A virus (A/WSN/1933(H1N1)) H274Y mutant infected in BALB/c mouse assessed as reduction in body weight at 10 mg/kg, po administered 4 hrs before infection for 5 days measured on day 5 (reference value: 22.2 %). Details: scale not given: the % may be the effect or the level left.

With `CCOC(=O)C1=C[C@@H](OC(CC)CC)[C@H](NC(C)=O)[C@@H](N)C1` [OSELTAMIVIR], the Activity in the test with Influenza A virus [1] turned out to be 23.7%; in the test on Influenza A virus [2], 20.1%; in the test with Influenza A virus [3], 21.5%; in the test with Influenza A virus [4], 100%; in the test on Influenza A virus [5] it was 100%; in the test with Influenza A virus [6], 75%. Moreover, the Time turned out to be 5 days with Influenza A virus [7], 5.2 days with Influenza A virus [8] and 5.1 days in the test with Influenza A virus [9]. Further, the figures for the PFU with Influenza A virus [10], in the test with Influenza A virus [11] and with Influenza A virus [12] were 190000, 230000 and 13000, respectively.

For the compound `C/C=C\[C@@H]1C[C@H](C(=O)OC(C)C)N[C@H]1[C@@H](NC(C)=O)[C@](C)(CCC)OC`, the Activity in the test with Influenza A virus [1] came to 10.8%; in the test with Influenza A virus [2] it was 19%; with Influenza A virus [3], 15.6%; in the test on Influenza A virus [4] it was 0%; with Influenza A virus [5] it was 75%; with Influenza A virus [6], 25%. The results for the Activity in the test with Influenza A virus [14] and with Influenza A virus [15] were 0% and 5%, respectively. In addition, the values for the Time in the test with Influenza A virus [8] and with Influenza A virus [9] were 5.4 days and 5 days, respectively. Also, the PFU in the test on Influenza A virus [10] amounted to 69000; with Influenza A virus [11], 83000; with Influenza A virus [12] it was 130000; in the test with Influenza A virus [13] it was 35000.
